Laboratory results as given in patent US8178539B2, “Substituted 3,4,6,7-tetrahydro-5H-1,2a,4a,8-tetraazacyclopenta[cd]phenalenes and methods” (3M Innovative Properties Company, priority 2006, dated 2012).
Structures can show the parent of a compound that is named as a salt.

melting point	SMILES
222 to 227 °C	CCOCc1nc2c(N)nc3c4c2n1CC(C)(C)N4CCC3 (as salt: hydrochloride) [Example 6, 2-(Ethoxymethyl)-4,4-dimethyl-3,4,6,7-tetrahydro-5H-1,2a,4a,8-tetraazacyclopenta[cd]phenalen-9-amine hydrochloride]
172 to 173 °C	CCOCc1nc2c(N)nc3c4c2n1CCN4CCC3 [Example 1, 2-(Ethoxymethyl)-3,4,6,7-tetrahydro-5H-1,2a,4a,8-tetraazacyclopenta[cd]phenalen-9-amine]
171 to 172 °C	COCCc1nc2c(N)nc3c4c2n1CCN4CCC3 [Example 2, 2-(2-Methoxyethyl)-3,4,6,7-tetrahydro-5H-1,2a,4a,8-tetraazacyclopenta[cd]phenalen-9-amine]
225 to 230 °C	CCCc1nc2c(N)nc3c4c2n1CCN4CCC3 [Example 3, 2-Propyl-3,4,6,7-tetrahydro-5H-1,2a,4a,8-tetraazacyclopenta[cd]phenalen-9-amine]
164.5 to 166.1 °C	CCOCc1nc2c(N)nc3c4c2n1[C@H](C)CN4CCC3 [Example 4, (3R)-2-(Ethoxymethyl)-3-methyl-3,4,6,7-tetrahydro-5H-1,2a,4a,8-tetraazacyclopenta[cd]phenalen-9-amine]
164.1 to 165.6 °C	CCOCc1nc2c(N)nc3c4c2n1[C@@H](C)CN4CCC3 [Example 5, (3S)-2-(Ethoxymethyl)-3-methyl-3,4,6,7-tetrahydro-5H-1,2a,4a,8-tetraazacyclopenta[cd]phenalen-9-amine]
